Reference: patent US12180306B2, “Anti-allergic peptide and use thereof for immune regulation and anti-allergy” (Greenyn Biotechnology Co., Ltd, priority 2022, dated 2024)

Test system: mouse mast cells P815
Assay: Inhibition of IL-4 and IL-13 secretion by compound 48/80-induced mouse mast cells P815
Format: cell-based
Parameters: key to IL-13 Concentration decrease percentage (%) / IL-4 Concentration decrease percentage (%): N represents that the results obtained have not decreased
Conditions: synthetic peptides; for IL-4 Concentration decrease percentage (%) / IL-13 Concentration decrease percentage (%): P815 cells, compound 48/80 10 μg/mL; for effects in inhibiting secretion of IL-4 and IL-13 by cells: comparison within Table 3; for inhibiting allergic reactions: conclusion from Table 3
Protocol: Referring to the method disclosed in Example 3, an ability of each of the above synthetic sequences in inhibiting secretion of cytokines such as IL-4 and IL-13 is tested, the results are shown in Table 3, where N represents that the results obtained have not decreased.

Sequence: ADALQLVLAV [Peptide 15]
- IL-4 Concentration decrease percentage (%): 2.7%
- IL-13 Concentration decrease percentage (%): 3.8%

Sequence: DLDVVVALGI [Peptide 5]
- effects in inhibiting secretion of IL-4 and IL-13 by cells: better effects
- inhibiting allergic reactions: capable of inhibiting allergic reactions
- IL-4 Concentration decrease percentage (%): 7.3%
- IL-13 Concentration decrease percentage (%): 24.0%

Sequence: DLQLAGLIGL [Peptide 1]
- inhibiting allergic reactions: capable of inhibiting allergic reactions
- IL-4 Concentration decrease percentage (%): 14.5%
- IL-13 Concentration decrease percentage (%): 24.0%

Sequence: EWLLGLLGI [Peptide 4]
- inhibiting allergic reactions: capable of inhibiting allergic reactions
- IL-4 Concentration decrease percentage (%): 19.9%
- IL-13 Concentration decrease percentage (%): 35.4%

Sequence: GLGDAKVALGI [Peptide 3]
- effects in inhibiting secretion of IL-4 and IL-13 by cells: better effects
- inhibiting allergic reactions: capable of inhibiting allergic reactions
- IL-4 Concentration decrease percentage (%): 5.1%
- IL-13 Concentration decrease percentage (%): 21.7%

Sequence: GVSGGVLAAILG [Peptide 9]
- IL-4 Concentration decrease percentage (%): 5.8%
- IL-13 Concentration decrease percentage (%): 2.7%

Sequence: KIVNQVNHLNPT [Peptide 12]
- IL-4 Concentration decrease percentage (%): N
- IL-13 Concentration decrease percentage (%): 10.8%

Sequence: LVPWSIIGL [Peptide 14]
- IL-4 Concentration decrease percentage (%): N
- IL-13 Concentration decrease percentage (%): 9.8%

Sequence: NKKQAAALGI [Peptide 8]
- IL-4 Concentration decrease percentage (%): 1.0%
- IL-13 Concentration decrease percentage (%): 11.4%

Sequence: NPALQVIKV [Peptide 2]
- effects in inhibiting secretion of IL-4 and IL-13 by cells: better effects
- inhibiting allergic reactions: capable of inhibiting allergic reactions
- IL-4 Concentration decrease percentage (%): 8.1%
- IL-13 Concentration decrease percentage (%): 27.1%

Sequence: PMALLAVLGL [Peptide 7]
- IL-4 Concentration decrease percentage (%): 4.1%
- IL-13 Concentration decrease percentage (%): 5.2%

Sequence: PPYQGAPLM [Peptide 11]
- IL-4 Concentration decrease percentage (%): 10.0%
- IL-13 Concentration decrease percentage (%): N

Sequence: QTAQALVLIG [Peptide 13]
- IL-4 Concentration decrease percentage (%): N
- IL-13 Concentration decrease percentage (%): 12.1%

Sequence: TANAIGLAGLI [Peptide 10]
- IL-4 Concentration decrease percentage (%): 9.3%
- IL-13 Concentration decrease percentage (%): N

Sequence: TRQKALAALGI [Peptide 16]
- IL-4 Concentration decrease percentage (%): N
- IL-13 Concentration decrease percentage (%): 5.9%

Sequence: VGNSLAAVIIG [Peptide 6]
- IL-4 Concentration decrease percentage (%): 0.9%
- IL-13 Concentration decrease percentage (%): 2.7%
